Measured values reported in PMC10450187, “Ncs2* mediates in vivo virulence of pathogenic yeast through sulphur modification of cytoplasmic transfer RNA” (Nucleic Acids Research, 2023).
Residue numbers refer to the chain shown, from its start. In names and notes the source's numbering stands.

Tests used:
[1] = molecular target: T1, CtNcs2 (Thermochaetoides thermophila, UniProt G0SFJ9); assay: thermal shift assay (SYPRO Orange); assay type: binding; settings: 2 mM MgCl2, 20 mM Tris pH 8, 150 mM NaCl, 1 mM DTT
T1 construct: gene NCS2; codon-optimized, E. coli BL21(DE3) pRARE, pETM30 N-terminal 6xHis-GST tag (TEV-cleavable, optionally cleaved), GSTrap, heparin, size exclusion
T1 sequence (G0SFJ9 1-406): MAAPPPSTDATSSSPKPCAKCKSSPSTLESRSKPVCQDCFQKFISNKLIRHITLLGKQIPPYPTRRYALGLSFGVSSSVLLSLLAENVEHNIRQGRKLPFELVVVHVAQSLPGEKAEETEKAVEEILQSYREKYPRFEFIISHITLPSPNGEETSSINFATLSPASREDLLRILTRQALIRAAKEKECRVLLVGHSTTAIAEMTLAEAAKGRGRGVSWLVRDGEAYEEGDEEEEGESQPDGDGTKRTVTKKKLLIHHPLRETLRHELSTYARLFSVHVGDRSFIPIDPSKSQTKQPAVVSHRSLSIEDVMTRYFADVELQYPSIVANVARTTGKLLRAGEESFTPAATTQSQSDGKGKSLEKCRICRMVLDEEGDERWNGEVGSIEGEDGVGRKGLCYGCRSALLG

[2] = molecular target: Ncs6 (Needs-Cla4-to-Survive 6), S. cerevisiae (S. cerevisiae, UniProt P53088 1-359); assay: two-hybrid; settings: partners not purified
Ncs6 (Needs-Cla4-to-Survive 6), S. cerevisiae, sequence (P53088 whole entry): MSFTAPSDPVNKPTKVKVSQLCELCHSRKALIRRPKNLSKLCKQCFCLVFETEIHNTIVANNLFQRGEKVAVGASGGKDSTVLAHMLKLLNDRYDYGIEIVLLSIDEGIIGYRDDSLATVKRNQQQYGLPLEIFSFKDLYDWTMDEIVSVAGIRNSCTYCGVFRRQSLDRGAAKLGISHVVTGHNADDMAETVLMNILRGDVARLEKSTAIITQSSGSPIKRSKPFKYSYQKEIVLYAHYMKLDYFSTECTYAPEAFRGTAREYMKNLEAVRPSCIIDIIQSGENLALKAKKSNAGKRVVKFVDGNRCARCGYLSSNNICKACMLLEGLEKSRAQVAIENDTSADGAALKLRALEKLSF

With Nc1ncnc2c1ncn2[C@@H]1O[C@H](COP(=O)(O)OP(=O)(O)NP(=O)(O)O)[C@@H](O)[C@H]1O [AMP-PNP] the melting temperature ([1]; 1 mM AMP-PNP) was “stability of Ncs2 increases significantly, when it is bound to ATP, ADP or the non-hydrolysable AMP-PNP”.

In the case of Nc1ncnc2c1ncn2[C@@H]1O[C@H](COP(=O)(O)OP(=O)(O)OP(=O)(O)O)[C@@H](O)[C@H]1O [ATP], the melting temperature ([1]; 1 mM ATP) is reported as “stability of Ncs2 increases significantly, when it is bound to ATP, ADP or the non-hydrolysable AMP-PNP”.

For Nc1ncnc2c1ncn2[C@@H]1O[C@H](COP(=O)(O)OP(=O)(O)O)[C@@H](O)[C@H]1O [ADP], the melting temperature ([1]; 1 mM ADP) was “stability of Ncs2 increases significantly, when it is bound to ATP, ADP or the non-hydrolysable AMP-PNP”.

B1: Ncs2* (Ncs2 H71L), S. cerevisiae (natural protein)
chain: MECQRCPASARNPATVESRKEKFCDECFIKFVSTKQRKQMMKDEYFRNLFKVIYPFEKEGSVSKILLPLSLSDSGSLVMLDIVHDLLLEQTKQHNNRTGFTVDVLTVFTEENVSVIKERMESLINEKMSQLNKISNIFNVHFIDVNEFFNNASEVSTFIIDNENFEIFSKSKSVDDSNILTLKEILGKYCLNNSSRSDLISIIKTQLIKHFAYENGYNAIMWGHSMTKLSEVIISLVVKGKGSQIATFLDSESFDTLNNKPCKYKNLYPMKDLLSVEIESFLQIRNLAQFLINVEETNVKPNCLIARKSLPSLGQQKLVKNMTINEITNKYFQDIQNDYSNIISTVLRTADKLTQPKSSMAKPSQCQICQSKIYTNPSNWLNRITVTSPYPVETTEEKYLFKQWQDSKLGQSHTHYVELLNEIKQGASNSLDVEDGDVKLCYGCLILLNTSIKDKNLVWPKVDTMDITANATNKNKELSQILDQFEINSDGEE
B1 was tested, and the “Miller units (beta-galactosidase, two-hybrid)” value (“Miller units” below) [2] was 252 MU.

B2: Ncs2^H71A, S. cerevisiae (natural protein)
chain: B1 chain with L71A
For B2, the “Miller units” value [2] was 130 MU.

B3: Ncs2^H71I, S. cerevisiae (natural protein)
chain: B1 chain with L71I
For B3, the “Miller units” value [2] was 109 MU.
